Results from patent publication US20230079819A1, “COMPOUNDS AND USES THEREOF” (Foghorn Therapeutics Inc., priority 2019, published 2023).

Tests used:
BRM = biological target: T1, BRM (Homo sapiens, UniProt P51531); test: ATPase catalytic activity of BRM, ADP-Glo in vitro biochemical assay; conditions: ATPase catalytic activity, 30 nM BRM, 400 μM ATP, read-out: BRM IP50
T1 construct: made in house; host or cells: High Five insect cells

BRG-1 = biological target: T2, BRG-1 (Homo sapiens, UniProt P51532); test: ATPase catalytic activity of BRG-1, ADP-Glo in vitro biochemical assay; conditions: ATPase catalytic activity, 30 nM BRG-1, 400 μM ATP, read-out: BRG1 IP50
T2 construct: made in house; host or cells: High Five insect cells
T2 sequence (P51532 whole entry): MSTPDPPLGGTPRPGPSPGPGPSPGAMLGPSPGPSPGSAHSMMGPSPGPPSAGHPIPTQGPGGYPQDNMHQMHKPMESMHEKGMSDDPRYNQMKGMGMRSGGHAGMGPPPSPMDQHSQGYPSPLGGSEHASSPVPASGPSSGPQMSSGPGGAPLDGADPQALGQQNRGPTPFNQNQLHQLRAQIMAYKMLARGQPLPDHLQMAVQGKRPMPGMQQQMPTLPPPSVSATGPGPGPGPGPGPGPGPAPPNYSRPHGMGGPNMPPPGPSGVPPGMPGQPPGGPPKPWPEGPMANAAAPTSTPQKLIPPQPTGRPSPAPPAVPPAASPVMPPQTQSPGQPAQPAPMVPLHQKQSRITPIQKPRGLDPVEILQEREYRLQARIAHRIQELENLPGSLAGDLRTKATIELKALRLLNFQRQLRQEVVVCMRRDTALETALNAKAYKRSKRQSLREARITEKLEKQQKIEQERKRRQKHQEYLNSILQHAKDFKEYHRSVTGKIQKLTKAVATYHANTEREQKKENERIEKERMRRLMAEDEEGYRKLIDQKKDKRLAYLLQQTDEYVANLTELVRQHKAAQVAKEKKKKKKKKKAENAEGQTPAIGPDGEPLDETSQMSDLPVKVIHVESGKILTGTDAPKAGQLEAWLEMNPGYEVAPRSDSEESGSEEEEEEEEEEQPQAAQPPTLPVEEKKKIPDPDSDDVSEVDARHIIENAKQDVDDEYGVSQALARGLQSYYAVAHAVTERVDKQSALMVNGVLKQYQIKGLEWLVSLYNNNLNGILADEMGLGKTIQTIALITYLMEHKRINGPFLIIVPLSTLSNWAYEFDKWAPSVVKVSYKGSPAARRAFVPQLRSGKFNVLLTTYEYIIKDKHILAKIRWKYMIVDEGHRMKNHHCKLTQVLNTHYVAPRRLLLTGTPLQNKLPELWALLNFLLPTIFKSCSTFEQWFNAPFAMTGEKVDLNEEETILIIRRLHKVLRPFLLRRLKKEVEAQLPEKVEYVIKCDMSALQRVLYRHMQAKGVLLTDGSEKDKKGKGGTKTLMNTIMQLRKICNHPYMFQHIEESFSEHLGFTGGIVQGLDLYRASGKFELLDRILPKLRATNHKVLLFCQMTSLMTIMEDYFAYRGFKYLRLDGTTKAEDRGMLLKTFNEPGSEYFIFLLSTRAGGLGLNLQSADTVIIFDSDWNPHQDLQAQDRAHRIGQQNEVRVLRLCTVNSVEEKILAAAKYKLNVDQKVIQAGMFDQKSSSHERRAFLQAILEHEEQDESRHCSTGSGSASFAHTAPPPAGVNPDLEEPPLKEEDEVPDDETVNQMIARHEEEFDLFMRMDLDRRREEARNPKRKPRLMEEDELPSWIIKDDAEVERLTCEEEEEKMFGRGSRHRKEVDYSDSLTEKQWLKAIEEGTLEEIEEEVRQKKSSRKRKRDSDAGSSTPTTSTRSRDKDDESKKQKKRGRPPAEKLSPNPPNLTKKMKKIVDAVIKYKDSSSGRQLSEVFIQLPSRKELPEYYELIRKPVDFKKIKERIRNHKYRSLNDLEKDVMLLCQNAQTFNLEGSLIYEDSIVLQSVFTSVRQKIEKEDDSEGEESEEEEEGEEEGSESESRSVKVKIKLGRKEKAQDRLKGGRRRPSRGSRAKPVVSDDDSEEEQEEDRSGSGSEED

T1 sequence (P51531 whole entry): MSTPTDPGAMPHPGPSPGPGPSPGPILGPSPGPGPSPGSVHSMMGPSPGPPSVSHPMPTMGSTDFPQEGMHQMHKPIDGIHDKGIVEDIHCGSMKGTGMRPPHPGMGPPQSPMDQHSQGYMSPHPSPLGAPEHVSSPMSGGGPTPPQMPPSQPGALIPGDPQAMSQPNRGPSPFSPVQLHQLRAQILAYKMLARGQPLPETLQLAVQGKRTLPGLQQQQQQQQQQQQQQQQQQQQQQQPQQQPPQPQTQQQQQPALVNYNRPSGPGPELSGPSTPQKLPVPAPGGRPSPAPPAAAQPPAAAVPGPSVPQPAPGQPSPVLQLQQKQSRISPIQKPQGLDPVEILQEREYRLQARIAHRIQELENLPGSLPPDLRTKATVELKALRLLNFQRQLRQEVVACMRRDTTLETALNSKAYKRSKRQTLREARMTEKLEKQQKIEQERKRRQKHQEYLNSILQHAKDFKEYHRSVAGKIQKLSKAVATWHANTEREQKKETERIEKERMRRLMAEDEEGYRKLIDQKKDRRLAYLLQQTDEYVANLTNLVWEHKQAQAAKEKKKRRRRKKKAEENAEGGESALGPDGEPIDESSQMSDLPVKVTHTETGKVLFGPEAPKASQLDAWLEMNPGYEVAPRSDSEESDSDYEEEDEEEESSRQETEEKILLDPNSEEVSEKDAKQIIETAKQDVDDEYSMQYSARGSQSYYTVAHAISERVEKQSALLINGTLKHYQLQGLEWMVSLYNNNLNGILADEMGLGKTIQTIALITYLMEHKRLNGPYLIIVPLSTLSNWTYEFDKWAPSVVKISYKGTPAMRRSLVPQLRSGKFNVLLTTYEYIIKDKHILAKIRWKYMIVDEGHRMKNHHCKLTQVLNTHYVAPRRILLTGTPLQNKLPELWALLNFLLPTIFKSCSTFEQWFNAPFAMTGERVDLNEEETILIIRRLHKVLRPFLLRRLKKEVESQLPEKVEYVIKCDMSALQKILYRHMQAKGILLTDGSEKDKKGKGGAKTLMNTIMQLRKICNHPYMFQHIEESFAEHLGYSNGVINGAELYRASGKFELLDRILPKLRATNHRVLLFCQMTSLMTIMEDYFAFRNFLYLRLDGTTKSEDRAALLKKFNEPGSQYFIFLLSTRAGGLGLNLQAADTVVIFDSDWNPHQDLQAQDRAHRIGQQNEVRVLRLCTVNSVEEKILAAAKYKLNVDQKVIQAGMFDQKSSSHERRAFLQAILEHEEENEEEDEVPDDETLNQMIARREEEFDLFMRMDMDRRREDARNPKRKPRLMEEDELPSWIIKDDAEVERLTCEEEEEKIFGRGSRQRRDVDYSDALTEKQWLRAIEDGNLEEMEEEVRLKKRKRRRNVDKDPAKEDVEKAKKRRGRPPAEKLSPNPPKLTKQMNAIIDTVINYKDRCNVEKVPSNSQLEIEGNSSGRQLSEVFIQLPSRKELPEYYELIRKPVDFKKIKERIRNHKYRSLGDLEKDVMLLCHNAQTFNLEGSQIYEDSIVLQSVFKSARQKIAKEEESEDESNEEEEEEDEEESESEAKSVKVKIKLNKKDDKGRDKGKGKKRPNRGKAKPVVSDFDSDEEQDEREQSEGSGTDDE

Structure (SMILES)	IC50 (BRM)	IC50 (BRG-1)
COC[C@@H](NC(=O)c1ccn(S(C)(=O)=O)c1)C(=O)Nc1nc(-c2cccc(-c3ccnc(OC)c3)c2)cs1 [Compound 444]	> 100 nM	> 100 nM
CS(=O)(=O)n1ccc(C(=O)NCC(=O)Nc2nc(-c3cccc(N4CCN(C5COC5)CC4)c3)cs2)c1 [Compound 451]	> 100 nM	> 100 nM
COC[C@H](NC(=O)c1ccn(S(C)(=O)=O)c1)C(=O)Nc1nc(-c2cccc(N3CCC3)c2)c(F)s1 [Compound 461]	> 100 nM	> 100 nM
CC(C)N1CCc2ccc(-c3csc(NC(=O)CNC(=O)c4ccn(S(C)(=O)=O)c4)n3)cc21 [Compound 469]	> 100 nM	> 100 nM
C[C@@H]1CN(c2cccc(-c3csc(NC(=O)CNC(=O)c4ccn(S(C)(=O)=O)c4)n3)c2)[C@@H](C)CO1 [Compound 471]	> 100 nM	> 100 nM
C[C@@H]1CN(c2cccc(-c3cccc(NC(=O)CNC(=O)c4ccn(S(C)(=O)=O)c4)c3F)c2)C[C@H](C)O1 [Compound 477, N-(2-((3′-(cis-2,6-dimethylmorpholino)-2-fluoro-[1,1′-biphenyl]-3-yl)amino)-2-oxoethyl)-1-(methylsulfonyl)-1H-pyrrole-3-carboxamide]	> 100 nM	> 100 nM
CC(C)(C)n1ccc(C(=O)NCC(=O)Nc2nc(-c3cccc(C4CC(F)(F)C4)n3)cs2)c1 [Compound 481]	> 100 nM	> 100 nM
CC(C)(F)COc1cccc(-c2csc(NC(=O)CNC(=O)c3ccn(C4(C)COC4)c3)n2)c1 [Compound 484]	> 100 nM	> 100 nM
CS(=O)(=O)n1ccc(C(=O)NCC(=O)Nc2nc(-c3ccc4c(c3)N(CC(F)F)CC4)cs2)c1 [Compound 487]	> 10 nM	> 10 nM
C[C@H](NC(=O)c1ccn(C(C)(C)C)c1)C(=O)Nc1nc(-c2cccc(-c3cnn(C)n3)n2)cs1 [Compound 488]	> 100 nM	> 100 nM
CS(=O)(=O)n1ccc(C(=O)NCC(=O)Nc2nc(-c3ccnc(OC4CC4)c3)cs2)c1 [Compound 489]	> 10 nM	> 10 nM
Cn1ncc2ccc(-c3csc(NC(=O)CNC(=O)c4ccn(C(C)(C)C)c4)n3)cc2c1=O [Compound 492]	> 10 nM	> 10 nM
Cn1ccc2ccc(-c3csc(NC(=O)CNC(=O)c4ccn(C56CC(C5)C6)c4)n3)cc2c1=O [Compound 493]	> 100 nM	> 100 nM
Cn1cnc2ccc(-c3csc(NC(=O)CNC(=O)c4ccn(C(C)(C)C)c4)n3)cc2c1=O [Compound 494]	> 10 nM	> 10 nM
CC(C)(C)n1ccc(C(=O)NCC(=O)Nc2nc(-c3cccc(C4(CO)CC4)n3)cs2)c1 [Compound 495]	> 10 nM	> 100 nM
N#CC1(n2ccc(C(=O)NCC(=O)Nc3nc(-c4cccc(OC(F)(F)F)n4)cs3)c2)CC1 [Compound 496]	> 100 nM	> 100 nM
CC(C)(F)COc1cccc(-c2csc(NC(=O)CNC(=O)c3ccn(C4(C#N)CC4)c3)n2)n1 [Compound 498]	> 100 nM	> 100 nM
CS(=O)(=O)n1ccc(C(=O)NCC(=O)Nc2nc(-c3cccc(OC(F)(F)F)c3F)cs2)c1 [Compound 501]	> 10 nM	> 100 nM
CS(=O)(=O)n1ccc(C(=O)NCC(=O)Nc2nc(-c3cccc(OCC4(F)COC4)c3)cs2)c1 [Compound 502]	> 10 nM	> 10 nM
CC(C)(C)n1ccc(C(=O)NCC(=O)Nc2nc(-c3cccc(OC(F)(F)F)n3)cs2)c1 [Compound 503]	> 100 nM	> 100 nM
Cn1ccc2ccc(-c3csc(NC(=O)CNC(=O)c4ccn(C5(C)CCC5)c4)n3)cc2c1=O [Compound 504]	> 10 nM	> 10 nM
C[C@@]1(n2ccc(C(=O)NCC(=O)Nc3nc(-c4cccc(N5CCC5)c4)cs3)c2)CCOC1 [Compound 505]	> 100 nM	> 100 nM
C[C@]1(n2ccc(C(=O)NCC(=O)Nc3nc(-c4cccc(N5CCC5)c4)cs3)c2)CCOC1 [Compound 506]	> 10 nM	> 100 nM
CS(=O)(=O)n1ccc(C(=O)NCC(=O)Nc2nc(-c3cccc(OC4CCC4)c3F)cs2)c1 [Compound 507]	> 10 nM	> 10 nM
CC(C)(C)n1ccc(C(=O)NCC(=O)Nc2nc(-c3cccc(OCC4(F)COC4)c3)cs2)c1 [Compound 509]	> 100 nM	> 100 nM
CC1(n2ccc(C(=O)NCC(=O)Nc3nc(-c4ccc(F)c(N5CCC5)c4)cs3)c2)COC1 [Compound 510]	> 10 nM	> 10 nM

Results, then the compound that gave them:

IC50 (BRM)	IC50 (BRG-1)	Structure (SMILES)
< 10 nM	< 10 nM	CS(=O)(=O)n1ccc(C(=O)NCC(=O)Nc2nc(-c3cccc(-c4ccnc(OCCN)c4)c3)cs2)c1 [Compound 442]
< 10 nM	> 10 nM	COC[C@H](NC(=O)c1ccn(S(C)(=O)=O)c1)C(=O)Nc1nc(-c2cccc(-c3ccnc(OC)c3)c2)cs1 [Compound 443]
> 10 nM	> 100 nM	CS(=O)(=O)n1ccc(C(=O)NCC(=O)Nc2nc(-c3cccc(N4CC5CCC(C4)O5)c3)cs2)c1 [Compound 445]
> 10 nM	> 10 nM	Cn1cc2c(n1)CCN(c1cccc(-c3csc(NC(=O)CNC(=O)c4ccn(S(C)(=O)=O)c4)n3)c1)C2 [Compound 446]
> 10 nM	> 10 nM	Cn1cc(-c2cccc(-c3csc(NC(=O)CNC(=O)c4ccn(S(C)(=O)=O)c4)n3)c2)nn1 [Compound 447]
> 10 nM	> 10 nM	CC(C)(C)n1ccc(C(=O)NCC(=O)Nc2nc(-c3cccc(N4CC(O)C4)c3)cs2)c1 [Compound 448]
> 10 nM	> 10 nM	CS(=O)(=O)n1ccc(C(=O)NCC(=O)Nc2nc(-c3cccc(N4CCC(F)CC4)c3)cs2)c1 [Compound 449]
> 10 nM	> 10 nM	CS(=O)(=O)n1ccc(C(=O)NCC(=O)Nc2nc(-c3cccc(N4CCO[C@H](CO)C4)c3)cs2)c1 [Compound 450]
> 10 nM	> 10 nM	CS(=O)(=O)n1ccc(C(=O)NCC(=O)Nc2nc(-c3cccc(N4CCO[C@@H](CO)C4)c3)cs2)c1 [Compound 452]
> 10 nM	> 10 nM	COC[C@H](NC(=O)c1ccn(C2(C)COC2)c1)C(=O)Nc1nc(-c2ccc3ccn(C)c(=O)c3c2)cs1 [Compound 453]
> 10 nM	> 10 nM	CS(=O)(=O)n1ccc(C(=O)NCC(=O)Nc2nc(-c3cc(F)cc(OC4CC4)c3)cs2)c1 [Compound 455]
< 10 nM	> 10 nM	C[C@@H]1CN(c2cccc(-c3csc(NC(=O)CNC(=O)c4ccn(C5(C#N)CC5)c4)n3)n2)C[C@H](C)O1 [Compound 458]
> 10 nM	> 10 nM	COC[C@H](NC(=O)c1ccn(S(C)(=O)=O)c1)C(=O)Nc1nc(-c2cccc(OC(F)(F)F)c2)cs1 [Compound 459]
> 10 nM	> 10 nM	CS(=O)(=O)n1ccc(C(=O)NCC(=O)Nc2nc(-c3cccc(N4CCC(N)C(F)(F)C4)c3)cs2)c1 (centres unmarked) [Compound 460]
> 10 nM	> 10 nM	COC[C@H](NC(=O)c1ccn(S(C)(=O)=O)c1)C(=O)Nc1nc(-c2cccc(-c3ccn(C)n3)c2)cs1 [Compound 462]
> 10 nM	> 10 nM	CS(=O)(=O)n1ccc(C(=O)NCC(=O)Nc2nc(-c3cccc(C(F)(F)F)c3)cs2)c1 [Compound 463]

IC50 (BRM)	IC50 (BRG-1)	Structure (SMILES)
> 10 nM	> 100 nM	CC(C)(C)n1ccc(C(=O)NCC(=O)Nc2nc(-c3cccc(C4COC4)c3)cs2)c1 [Compound 464]
> 10 nM	> 10 nM	CS(=O)(=O)n1ccc(C(=O)NCC(=O)Nc2nc(-c3cccc(C4COC4)c3)cs2)c1 [Compound 465]
> 10 nM	> 10 nM	COC[C@H](NC(=O)c1ccn(S(C)(=O)=O)c1)C(=O)Nc1nc(-c2cccc(C3COC3)c2)cs1 [Compound 466]
> 10 nM	> 10 nM	CS(=O)(=O)n1ccc(C(=O)NCC(=O)Nc2nc(-c3ccc4c(c3)N(C3CCOC3)CC4)cs2)c1 (centres unmarked) [Compound 467]
> 10 nM	> 100 nM	Cn1ncc(-c2cccc(-c3csc(NC(=O)CNC(=O)c4ccn(C5(C)COC5)c4)n3)n2)n1 [Compound 470]
> 10 nM	> 10 nM	CS(=O)(=O)n1ccc(C(=O)NCC(=O)Nc2nc(-c3cccc(C4CC(F)(F)C4)c3)cs2)c1 [Compound 472]
> 10 nM	> 100 nM	N#CC1(n2ccc(C(=O)NCC(=O)Nc3nc(-c4cccc(N5CCC5)n4)cs3)c2)CC1 [Compound 473]
< 10 nM	< 10 nM	Cn1ccc2ccc(-c3csc(NC(=O)CNC(=O)c4ccn(C5(C#N)CC5)c4)n3)cc2c1=O [Compound 475]
> 10 nM	> 10 nM	N#CC1(n2ccc(C(=O)NCC(=O)Nc3nc(-c4cccc(N5CCC5)c4)cs3)c2)CC1 [Compound 476]
> 10 nM	> 10 nM	CC1COc2ccc(-c3csc(NC(=O)CNC(=O)c4ccn(S(C)(=O)=O)c4)n3)cc2N1C (centres unmarked) [Compound 478]
> 10 nM	> 10 nM	CO[C@H]1C[C@@H](c2cccc(-c3csc(NC(=O)CNC(=O)c4ccn(S(C)(=O)=O)c4)n3)c2)C1 [Compound 479]
> 10 nM	> 10 nM	CC(C)(F)COc1cccc(-c2csc(NC(=O)CNC(=O)c3ccn(S(C)(=O)=O)c3)n2)c1 [Compound 483]
< 10 nM	< 10 nM	COC[C@H](NC(=O)c1ccn(C(C)(C)C)c1)C(=O)Nc1nc(-c2cc(C)c3ccn(C)c(=O)c3c2)cs1 [Compound 485]
> 10 nM	> 10 nM	CS(=O)(=O)n1ccc(C(=O)NCC(=O)Nc2nc(-c3ccc4c(c3)N(CC3COC3)CC4)cs2)c1 [Compound 486]
< 10 nM	< 10 nM	CS(=O)(=O)n1ccc(C(=O)NCC(=O)Nc2nc(-c3cccc(N4CCC4)c3F)cs2)c1 [Compound 499]
< 10 nM	< 10 nM	CS(=O)(=O)n1ccc(C(=O)NCC(=O)Nc2nc(-c3ccc(F)c(N4CCC4)c3)cs2)c1 [Compound 511]
